As usually defined, the AC50 is the midpoint of the concentration-response curve, whichever way the signal moves. For orientation: IC50 means the concentration at which inhibition is half-maximal. For orientation: EC50 means the concentration needed to bring the measured effect to its halfway point. The CC50 is the concentration that lowers cell viability or growth by half.

This note sets out measurements from ChEMBL document CHEMBL1201862, “PubChem BioAssay data set” (2004).

Data set [1] concerns the target Cytochrome P450 2C19 (Homo sapiens, UniProt P33261). The data set can be described thus: Cytochrome panel assay with activity outcomes. Panel member name: p450-cyp2c19 Compounds with AC50 equal or less than 10 uM are considered active. In kind it is functional. The following applies: read-out: AC50.
Data set [2] has as its target Cytochrome P450 3A4 (Homo sapiens, UniProt P08684).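 Further: CYP3A4 tested as one member of a cytochrome P450 panel screen.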
Data set [3] concerns the target Genome polyprotein (dengue virus type 2, UniProt P29990). In words: Dengue-2 NS5 methyltransferase inhibitors, primary screen, biochemical, confirmation dose response (AID 588689). In kind it is functional.
In data set [4] the test system is Streptococcus. The data set can be described thus: Group A Streptococcus viability loss, dose response, counter-screen for streptokinase expression inhibitor project, luminescence, BacTiterGlo (AID 1915).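 Further: potency for reduction of bacterial viability or growth.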 It counts as functional, organism-based. (A counterscreen serves to expose hits that act by an unwanted route or on another target.)
The nature of data set [5]: cells. In kind it is functional, cell-based.
Data set [6] has as its system INS1. In words: beta cell apoptosis inhibitors, cytokine rescue, dose response, luminescence, retest (AID 449756).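 Further: cell death triggered by IL-1 beta plus TNF-alpha plus IFN-gamma mixture; protective hits raise ATP signal compared with cytokine alone wells.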 In kind it is functional, cell-based. The following applies: Rattus norvegicus.
Data set [7] can be described thus: cells. In kind it is functional, cell-based. This is another data set of the same source.
Data set [8] is described as follows: inhibitors of intracellular T. cruzi replication, confirmation, NIH3T3 host cells, beta-gal luminescence (AID 2044).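 Further: intracellular parasites grown in NIH/3T3 mouse fibroblasts as host cells; luminescent beta-galactosidase reporter signal from transgenic T. cruzi replicating inside host cells; inhibitors lower the luminescence signal.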 It counts as functional, cell-based.
In data set [9] the target is T1, Exodeoxyribonuclease V (Escherichia coli (strain K12), UniProt P04993+P07648+P08394).
T1 sequence (P04993 whole entry): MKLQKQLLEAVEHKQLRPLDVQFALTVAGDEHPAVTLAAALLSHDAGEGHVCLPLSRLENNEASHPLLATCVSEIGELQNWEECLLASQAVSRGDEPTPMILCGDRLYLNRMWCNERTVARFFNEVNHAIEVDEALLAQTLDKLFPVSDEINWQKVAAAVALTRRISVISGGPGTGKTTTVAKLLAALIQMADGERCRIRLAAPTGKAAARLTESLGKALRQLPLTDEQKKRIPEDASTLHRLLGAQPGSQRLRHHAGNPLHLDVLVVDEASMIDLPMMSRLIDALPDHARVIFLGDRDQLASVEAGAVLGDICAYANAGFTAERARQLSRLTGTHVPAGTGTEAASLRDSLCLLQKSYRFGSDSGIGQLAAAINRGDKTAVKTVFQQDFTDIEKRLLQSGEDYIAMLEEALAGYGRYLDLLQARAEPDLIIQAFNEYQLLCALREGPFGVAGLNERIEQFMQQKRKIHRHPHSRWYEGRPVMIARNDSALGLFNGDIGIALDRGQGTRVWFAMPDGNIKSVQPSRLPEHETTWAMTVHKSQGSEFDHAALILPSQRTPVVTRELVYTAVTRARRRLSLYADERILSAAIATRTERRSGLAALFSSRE
T1 sequence (P07648 whole entry): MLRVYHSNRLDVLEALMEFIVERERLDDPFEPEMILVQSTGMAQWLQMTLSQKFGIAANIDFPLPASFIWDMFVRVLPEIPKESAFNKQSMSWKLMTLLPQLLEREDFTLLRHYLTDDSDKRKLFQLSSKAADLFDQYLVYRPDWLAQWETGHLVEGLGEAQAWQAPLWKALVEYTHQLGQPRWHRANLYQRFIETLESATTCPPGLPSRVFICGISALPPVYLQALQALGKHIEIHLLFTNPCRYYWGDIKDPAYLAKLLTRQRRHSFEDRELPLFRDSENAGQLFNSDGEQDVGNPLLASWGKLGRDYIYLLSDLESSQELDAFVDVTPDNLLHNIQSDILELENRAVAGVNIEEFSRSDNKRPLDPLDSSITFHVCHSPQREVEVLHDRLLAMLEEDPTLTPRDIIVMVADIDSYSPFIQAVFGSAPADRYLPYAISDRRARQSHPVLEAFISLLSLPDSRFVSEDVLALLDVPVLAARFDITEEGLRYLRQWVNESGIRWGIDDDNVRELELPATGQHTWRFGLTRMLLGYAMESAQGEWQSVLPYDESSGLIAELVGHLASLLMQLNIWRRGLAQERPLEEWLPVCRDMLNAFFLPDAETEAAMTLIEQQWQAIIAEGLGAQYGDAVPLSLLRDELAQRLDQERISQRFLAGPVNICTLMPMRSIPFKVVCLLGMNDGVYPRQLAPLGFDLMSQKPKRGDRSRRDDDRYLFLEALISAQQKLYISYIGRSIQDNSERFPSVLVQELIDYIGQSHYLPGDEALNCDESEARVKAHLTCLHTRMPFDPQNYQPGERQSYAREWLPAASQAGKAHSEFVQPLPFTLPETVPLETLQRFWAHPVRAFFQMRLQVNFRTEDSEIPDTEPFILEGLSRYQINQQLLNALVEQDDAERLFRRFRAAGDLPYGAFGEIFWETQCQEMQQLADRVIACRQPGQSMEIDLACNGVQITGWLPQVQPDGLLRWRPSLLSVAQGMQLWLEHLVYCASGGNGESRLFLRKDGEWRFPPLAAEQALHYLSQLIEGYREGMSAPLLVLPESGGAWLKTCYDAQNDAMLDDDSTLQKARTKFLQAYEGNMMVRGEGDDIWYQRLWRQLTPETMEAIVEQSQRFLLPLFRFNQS
T1 sequence (P08394 whole entry): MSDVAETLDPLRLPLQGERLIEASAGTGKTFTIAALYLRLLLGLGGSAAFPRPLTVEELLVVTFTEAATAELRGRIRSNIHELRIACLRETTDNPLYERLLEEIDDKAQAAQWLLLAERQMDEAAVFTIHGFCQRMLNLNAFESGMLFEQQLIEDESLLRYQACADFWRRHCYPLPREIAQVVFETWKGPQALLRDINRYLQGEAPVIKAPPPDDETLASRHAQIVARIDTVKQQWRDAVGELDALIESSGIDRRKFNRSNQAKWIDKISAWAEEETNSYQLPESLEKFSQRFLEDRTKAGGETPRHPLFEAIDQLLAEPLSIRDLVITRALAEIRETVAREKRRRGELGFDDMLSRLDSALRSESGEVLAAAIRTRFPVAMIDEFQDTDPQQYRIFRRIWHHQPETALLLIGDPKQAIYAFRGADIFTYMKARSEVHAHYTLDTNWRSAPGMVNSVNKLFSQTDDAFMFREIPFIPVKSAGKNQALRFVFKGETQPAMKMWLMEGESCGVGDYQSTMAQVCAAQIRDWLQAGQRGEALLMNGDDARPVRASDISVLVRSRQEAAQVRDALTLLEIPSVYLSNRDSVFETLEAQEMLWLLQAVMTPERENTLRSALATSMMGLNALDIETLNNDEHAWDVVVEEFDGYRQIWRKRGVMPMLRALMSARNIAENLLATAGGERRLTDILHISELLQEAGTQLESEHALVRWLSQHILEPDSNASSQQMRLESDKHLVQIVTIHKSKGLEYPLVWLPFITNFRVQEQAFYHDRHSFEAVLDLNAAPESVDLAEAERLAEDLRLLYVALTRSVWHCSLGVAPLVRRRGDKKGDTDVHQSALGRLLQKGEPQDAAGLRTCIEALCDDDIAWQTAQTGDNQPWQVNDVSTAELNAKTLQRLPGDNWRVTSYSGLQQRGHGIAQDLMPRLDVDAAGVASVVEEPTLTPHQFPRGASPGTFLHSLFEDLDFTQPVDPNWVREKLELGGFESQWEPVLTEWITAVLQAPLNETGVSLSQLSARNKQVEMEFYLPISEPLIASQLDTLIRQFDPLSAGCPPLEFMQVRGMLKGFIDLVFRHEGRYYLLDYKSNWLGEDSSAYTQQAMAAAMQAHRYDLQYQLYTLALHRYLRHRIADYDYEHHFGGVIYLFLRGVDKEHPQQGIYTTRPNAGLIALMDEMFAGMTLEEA
The data set can be described thus: E. coli RecBCD inhibitors, dose response, counter-screen for AddAB inhibitor project, absorbance, V66 E. coli, mutant T4 phage (AID 492957). In kind it is functional, cell-based, Escherichia coli str. K-12 substr. MG1655.

The nature of data set [10]: HepG2 cell cytotoxicity, dose response, cytotoxicity control for Shn3 inhibitor project, CellTiter-Glo, cherry-picked (AID 624134). It counts as functional, cell-based. On the technique in general: Cellular ATP, detected with luciferase, serves as a proxy for viable cell number.
The nature of data set [11]: cytotoxicity toward NIH3T3 fibroblasts, dose response, counter-screen, cell-based, ATP luminescence, mouse fibroblasts (AID 2010).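 Further: cells exposed to compound for about 90 hours before reading.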 In kind it is functional.
The test system of data set [12] is Streptococcus sp. 'group A'. In words: growth inhibition of control SK(-) GAS strain, dose response, counter-screen for streptokinase expression inhibitor project, luminescence, kanamycin, BacTiterGlo, confirmation (AID 1900). It counts as functional, organism-based.
Data set [13] has as its system Vero. The data set can be described thus: cells. In kind it is functional. The conditions noted are these: Chlorocebus sabaeus.
Data set [14] in a line: Counterscreen for AddAB inhibitors: absorbance-based bacterial cell-based high throughput dose response assay for inhibitors of bacterial viability. [Related pubchem assays (depositor defined):AID435030, AID449728, AID449731, AID488942, AID488955, AID488956]. It counts as functional.
A short description of data set [15]: Shn3 3'UTR reporter inhibitors, dose response, cell-based, Clone20 osteoblasts, firefly luciferase, cherry-picked (AID 624132).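 Further: firefly luciferase luminescence from reporter carrying the Shn3 3'UTR in osteoblasts.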 It counts as functional.
The nature of data set [16]: control 3'UTR Renilla luciferase suppression, dose response, counter-screen for Shn3 inhibitor project, cell-based, Clone20-Shn3RL, cherry-picked (AID 624133). It counts as functional.
Data set [17] is described as follows: cytotoxicity in HPDE-C7 cells, cell-based, fluorescence, HTS (AID 430). It counts as functional. The conditions noted are these: Homo sapiens.
The target of data set [18] is Peroxisome proliferator-activated receptor gamma/Nuclear receptor coactivator 1 (Homo sapiens, UniProt P37231). In words: TR-FRET dose response biochemical High Throughput Screening assay for agonists of the steroid receptor coactivator 1 (SRC-1) recruitment by the peroxisome proliferator-activated receptor gamma (PPAR gamma): non-selective agonists. [Related pubchem assays (depositor defined):AID1300, AID1808, AID504735, AID631]. In kind it is protein assay.

The nature of data set [19]: cytotoxicity in KRAS-transformed pancreatic duct cells, primary screen, cell-based, fluorescence, HTS (AID 431).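 Further: cell line used: HPDE-C7K.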 In kind it is functional. The following applies: Homo sapiens.
For data set [20], the target named is Peroxisome proliferator-activated receptor gamma/Nuclear receptor coactivator 3 (Homo sapiens, UniProt P37231). The data set can be described thus: TR-FRET dose response biochemical High Throughput Screening assay for agonists of the steroid receptor coactivator 3 (SRC-3) recruitment by the peroxisome proliferator-activated receptor gamma (PPAR gamma): non-selective agonists. [Related pubchem assays: 1301 (Confirmation screen.), 1048 (Primary screen.)]. In kind it is functional. (In general: TR-FRET usually uses a lanthanide donor and a delayed reading to cut background.)

Data set [21] has as its target Peroxisome proliferator-activated receptor gamma/Nuclear receptor coactivator 2 (Homo sapiens, UniProt P37231). The data set can be described thus: TR-FRET dose response biochemical High Throughput Screening assay for agonists of the steroid receptor coactivator 2 (SRC-2) recruitment by the peroxisome proliferator-activated receptor gamma (PPAR gamma): non-selective agonists. [Related pubchem assays: 1297, 1032 ]. In kind it is functional.

Data set [22] addresses Cytochrome P450 2D6 (Homo sapiens, UniProt P10635).

Activity calls are given as the source filed them.

Sequence of Cytochrome P450 3A4 (P08684 whole entry): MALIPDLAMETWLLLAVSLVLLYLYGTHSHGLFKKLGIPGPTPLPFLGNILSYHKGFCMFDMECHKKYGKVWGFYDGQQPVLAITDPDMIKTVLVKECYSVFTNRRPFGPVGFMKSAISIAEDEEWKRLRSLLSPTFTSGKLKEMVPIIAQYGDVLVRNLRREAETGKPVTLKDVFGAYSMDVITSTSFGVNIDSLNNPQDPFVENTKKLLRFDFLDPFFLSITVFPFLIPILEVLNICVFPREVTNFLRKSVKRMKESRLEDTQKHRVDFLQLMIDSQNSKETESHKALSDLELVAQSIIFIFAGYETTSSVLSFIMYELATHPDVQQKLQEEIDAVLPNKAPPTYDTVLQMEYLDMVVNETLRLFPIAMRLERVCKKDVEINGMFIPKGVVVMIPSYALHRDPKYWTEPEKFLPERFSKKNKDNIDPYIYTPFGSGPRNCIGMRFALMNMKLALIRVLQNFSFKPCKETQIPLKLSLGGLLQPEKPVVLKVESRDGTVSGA
Sequence of Cytochrome P450 2C19 (P33261 whole entry): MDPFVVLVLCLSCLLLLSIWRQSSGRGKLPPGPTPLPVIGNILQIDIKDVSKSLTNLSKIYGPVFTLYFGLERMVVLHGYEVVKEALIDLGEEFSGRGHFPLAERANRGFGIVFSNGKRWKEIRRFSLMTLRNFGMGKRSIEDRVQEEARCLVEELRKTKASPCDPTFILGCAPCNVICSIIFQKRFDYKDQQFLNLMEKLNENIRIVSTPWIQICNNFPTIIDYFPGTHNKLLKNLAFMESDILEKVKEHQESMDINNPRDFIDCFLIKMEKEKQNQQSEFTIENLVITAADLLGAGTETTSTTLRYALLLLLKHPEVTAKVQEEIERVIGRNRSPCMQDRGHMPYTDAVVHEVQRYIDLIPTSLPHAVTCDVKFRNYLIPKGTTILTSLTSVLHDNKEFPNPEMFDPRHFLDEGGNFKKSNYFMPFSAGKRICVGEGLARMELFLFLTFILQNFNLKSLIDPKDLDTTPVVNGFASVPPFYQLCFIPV
Sequence of Peroxisome proliferator-activated receptor gamma/Nuclear receptor coactivator 2 (P37231 whole entry): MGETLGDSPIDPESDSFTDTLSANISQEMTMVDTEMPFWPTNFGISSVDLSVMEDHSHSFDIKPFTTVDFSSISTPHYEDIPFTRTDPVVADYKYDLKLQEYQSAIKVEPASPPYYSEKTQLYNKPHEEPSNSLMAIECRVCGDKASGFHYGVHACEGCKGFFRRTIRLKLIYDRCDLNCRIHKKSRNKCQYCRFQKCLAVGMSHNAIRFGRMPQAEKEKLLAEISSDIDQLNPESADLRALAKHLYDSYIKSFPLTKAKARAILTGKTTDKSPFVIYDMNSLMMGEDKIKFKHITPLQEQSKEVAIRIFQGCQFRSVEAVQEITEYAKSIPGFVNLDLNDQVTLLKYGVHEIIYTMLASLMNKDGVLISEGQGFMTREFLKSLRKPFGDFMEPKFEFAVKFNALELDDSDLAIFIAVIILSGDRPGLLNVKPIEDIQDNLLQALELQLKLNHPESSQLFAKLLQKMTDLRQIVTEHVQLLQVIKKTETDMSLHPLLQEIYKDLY
Sequence of Peroxisome proliferator-activated receptor gamma/Nuclear receptor coactivator 2 (Q15596 whole entry, further chain): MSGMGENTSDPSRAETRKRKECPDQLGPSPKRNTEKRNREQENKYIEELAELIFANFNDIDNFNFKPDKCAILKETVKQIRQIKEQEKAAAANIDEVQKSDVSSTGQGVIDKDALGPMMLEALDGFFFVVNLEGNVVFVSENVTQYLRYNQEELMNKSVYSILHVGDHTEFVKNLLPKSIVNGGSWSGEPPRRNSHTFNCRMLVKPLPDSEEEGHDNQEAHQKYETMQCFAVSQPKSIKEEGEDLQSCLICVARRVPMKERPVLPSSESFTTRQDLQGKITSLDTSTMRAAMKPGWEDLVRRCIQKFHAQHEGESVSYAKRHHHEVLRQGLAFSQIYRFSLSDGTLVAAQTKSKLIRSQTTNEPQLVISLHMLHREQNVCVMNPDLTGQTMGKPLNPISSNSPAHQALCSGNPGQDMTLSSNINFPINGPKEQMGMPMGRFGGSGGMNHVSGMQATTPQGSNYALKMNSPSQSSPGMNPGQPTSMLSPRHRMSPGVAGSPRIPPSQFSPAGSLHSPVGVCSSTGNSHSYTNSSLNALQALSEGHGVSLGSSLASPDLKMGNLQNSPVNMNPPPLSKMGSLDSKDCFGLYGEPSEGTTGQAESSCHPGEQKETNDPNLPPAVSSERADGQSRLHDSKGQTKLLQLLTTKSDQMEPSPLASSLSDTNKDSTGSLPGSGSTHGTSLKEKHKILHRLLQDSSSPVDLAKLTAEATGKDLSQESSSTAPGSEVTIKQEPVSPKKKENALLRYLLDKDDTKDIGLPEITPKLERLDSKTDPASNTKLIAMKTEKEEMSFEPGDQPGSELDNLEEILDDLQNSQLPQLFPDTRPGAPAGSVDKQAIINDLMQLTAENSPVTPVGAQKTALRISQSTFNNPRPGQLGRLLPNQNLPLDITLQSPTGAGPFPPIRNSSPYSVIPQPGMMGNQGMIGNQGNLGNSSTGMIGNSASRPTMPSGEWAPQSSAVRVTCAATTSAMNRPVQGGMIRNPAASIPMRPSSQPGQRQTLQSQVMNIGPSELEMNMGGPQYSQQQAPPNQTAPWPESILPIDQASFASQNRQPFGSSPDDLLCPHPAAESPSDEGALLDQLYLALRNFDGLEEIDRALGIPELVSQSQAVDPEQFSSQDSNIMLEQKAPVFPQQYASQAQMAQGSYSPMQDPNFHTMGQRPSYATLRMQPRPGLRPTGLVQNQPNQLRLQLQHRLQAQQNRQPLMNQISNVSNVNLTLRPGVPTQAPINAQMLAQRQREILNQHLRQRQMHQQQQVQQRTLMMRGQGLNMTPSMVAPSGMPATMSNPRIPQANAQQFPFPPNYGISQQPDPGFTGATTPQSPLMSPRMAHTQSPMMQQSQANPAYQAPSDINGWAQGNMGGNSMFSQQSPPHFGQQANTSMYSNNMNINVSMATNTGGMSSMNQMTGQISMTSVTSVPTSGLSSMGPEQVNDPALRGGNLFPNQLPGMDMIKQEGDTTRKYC
Sequence of Peroxisome proliferator-activated receptor gamma/Nuclear receptor coactivator 1 (P37231 whole entry): as the sequence (P37231 whole entry) above
Sequence of Peroxisome proliferator-activated receptor gamma/Nuclear receptor coactivator 1 (Q15788 whole entry, further chain): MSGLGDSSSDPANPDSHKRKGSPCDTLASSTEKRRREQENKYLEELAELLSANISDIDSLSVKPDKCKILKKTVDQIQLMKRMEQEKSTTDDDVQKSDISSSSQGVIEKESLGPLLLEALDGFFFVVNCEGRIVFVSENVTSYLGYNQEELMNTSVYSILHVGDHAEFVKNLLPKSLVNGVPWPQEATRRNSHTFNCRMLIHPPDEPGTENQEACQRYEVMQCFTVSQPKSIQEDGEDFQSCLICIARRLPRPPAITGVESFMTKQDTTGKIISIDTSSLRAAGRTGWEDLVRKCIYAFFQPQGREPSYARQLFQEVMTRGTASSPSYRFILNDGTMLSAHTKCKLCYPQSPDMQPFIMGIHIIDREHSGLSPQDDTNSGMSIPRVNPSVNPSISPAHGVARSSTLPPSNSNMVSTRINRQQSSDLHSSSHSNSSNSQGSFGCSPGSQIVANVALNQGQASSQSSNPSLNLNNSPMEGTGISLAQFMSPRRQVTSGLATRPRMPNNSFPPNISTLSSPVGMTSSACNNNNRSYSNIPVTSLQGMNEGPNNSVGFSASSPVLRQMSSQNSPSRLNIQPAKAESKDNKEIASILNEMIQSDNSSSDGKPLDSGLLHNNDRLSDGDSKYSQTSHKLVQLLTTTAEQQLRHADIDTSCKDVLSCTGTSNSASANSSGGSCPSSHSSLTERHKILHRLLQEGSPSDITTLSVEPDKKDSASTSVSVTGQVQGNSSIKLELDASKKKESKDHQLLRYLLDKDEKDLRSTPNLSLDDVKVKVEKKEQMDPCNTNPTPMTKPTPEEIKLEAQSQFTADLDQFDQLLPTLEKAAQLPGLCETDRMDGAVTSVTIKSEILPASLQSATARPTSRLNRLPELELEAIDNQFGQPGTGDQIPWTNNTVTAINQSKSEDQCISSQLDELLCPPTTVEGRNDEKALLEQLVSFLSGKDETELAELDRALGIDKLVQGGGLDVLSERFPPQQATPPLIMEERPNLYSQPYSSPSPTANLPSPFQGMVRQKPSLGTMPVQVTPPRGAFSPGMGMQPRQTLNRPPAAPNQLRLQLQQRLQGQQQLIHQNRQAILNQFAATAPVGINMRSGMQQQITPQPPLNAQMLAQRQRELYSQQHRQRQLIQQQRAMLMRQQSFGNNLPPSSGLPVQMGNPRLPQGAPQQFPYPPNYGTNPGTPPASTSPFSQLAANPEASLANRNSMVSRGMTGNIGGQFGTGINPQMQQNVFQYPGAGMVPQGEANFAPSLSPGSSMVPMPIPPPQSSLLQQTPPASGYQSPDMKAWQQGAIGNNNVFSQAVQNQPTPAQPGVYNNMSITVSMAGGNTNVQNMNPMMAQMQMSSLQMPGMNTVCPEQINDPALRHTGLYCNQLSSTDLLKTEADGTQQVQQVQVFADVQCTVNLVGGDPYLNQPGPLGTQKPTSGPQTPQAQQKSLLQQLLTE

With `O=C(Nc1cccc(F)c1)N1CCC2(CC1)CCN(C(=O)c1ccco1)CC2`, the AC50 in [1] was 10 µM (inconclusive); in data set [2], “inconclusive”.

In the case of `C=CCOc1ccc(/C=C2/C(=O)ON=C2C)cc1OCC`, the 50% inhibitory concentration (IC50) in data set [3] was > 100 µM (active).

For the compound `CCCC(=O)NC(c1ccc(Cl)cc1Cl)c1ccc2cccnc2c1O` (centres undefined), the concentration for a half-maximal effect (EC50) is 7.38 µM (active) in [4]; > 350 µM (not active) in data set [5]; 7.39 µM (active) in [7]; 0.102 µM (active) in data set [8]; 0.543 µM (active) in data set [11]; 1.01 µM (active) in data set [12]. In addition, the AC50 in data set [6] was 0.491 µM (active); in [10], > 70 µM (inactive); in data set [15], 0.638 µM (active); in data set [16], 3.61 µM (active). The IC50 in [9] and in data set [14] was > 119 µM (inactive) throughout. Also, the CC50 in data set [13] is 1.15 µM (active).

Take `Cn1c(=O)c(-c2ccc(F)cc2)nc2cnc(Oc3ccccc3)nc21`: in data set [2], the AC50 entry is listed as “inconclusive”.

As for `CCn1c2c(c3cc(Br)ccc31)CCC/C2=N\O`, the EC50 was 10.8 µM (active) in [17]; > 79.4 µM (inactive) in data set [18]; 10.8 µM (active) in [19]; > 79.4 µM (not active) in data set [20]; 25.7 µM (not active) in [21].

Turning to `O=C(c1cc(C(F)(F)F)cc(C(F)(F)F)c1)N1CCC2(CCN(Cc3nccs3)CC2)CC1`, the AC50 in [22] is 10 µM (inconclusive); in data set [2] it was “inconclusive”.
